The record followed here is US8945597B2, “Botanical insecticides” (priority 2012, dated 2015).

Assay [1] deals with pest insects. Briefly: Insecticidal properties of terpenes/terpenoids (test not described). The note with it: tested and proved; test details not given.
In assay [2] the test system is planthopper nymphs (nilaparvata legen). As to the kind of experiment: Insecticidal efficacy test against planthopper nymphs (POTTER sprayer). The note with it: concentration 20 mg/L; sprayed; mid 3rd instar nymphs; mortality after 72 hours. Type of assay: in vivo. The method, then: Insecticidal efficacy test against planthopper nymphs (nilaparvata legen). Some rice seedling leaves are mounted with white quartz sand in a Petri dish with 5 cm diameter containing 5 ml water. Planthoppers nymphs of mid 3rd instar were anesthetized by CO2. 20-30 anesthetized nymphs are transferred to each Petri dish and placed under the POTTER sprayer. Same amount of testing chemical is sprayed into each Petri dish and covered with transparent plastic cup. Use nitenpyram 20 mg/L for comparison and water as control.

For assay [3], the system named is Aphid nymphs (Aphis medicagini). Briefly: Insecticidal efficacy test against aphid nymphs (leaf disc dip). The class given is in vivo. The note with it: concentration 20 mg/L; leaf disc dipped 5 seconds; mortality after 24 hours. The method, then:
Insecticidal Efficacy Test Against Aphid Nymphs (Aphis medicagini)
Take the first preferred embodiment, diluted in water in two different concentrations, A with 1% weight content of active ingredients, B with 0.1% active ingredients. Vicia leaf cut into round disc in 2 cm diameter, back up placed on a small cotton ball, and then mounted in a Petri dish, 5 ml water is added. Mature aphids are transferred onto the leaf disc to hatch aphid nymphs. Mature aphids are removed after 24 hours and 20-30 aphid nymphs are left on the leave disc and continue to culture for one day. The leave disc with aphid nymphs is merged into solution A and B for 5 seconds, excessive fluid on the leaf surface is absorbed by paper tower. Leaf disc is then mounted back to the cotton ball for another 24 hours observation. Use Nitenpyram 20 mg/L for comparison and water as control.

With ocimene, in assay [1], the insecticidal properties entry was “significant insecticidal properties”.

For the compound `Cc1ccc(C(C)C)cc1` [p-cymene], in assay [1], the insecticidal properties result is listed as “significant insecticidal properties”.

With `C[C@@H]1CC[C@H]2C(C)(C)C3C[C@@]12CC[C@@]3(C)O` [Embodiment 8-epicedrol, 8-epicedrol], the insecticidal properties entry in assay [1] is on record as “significant insecticidal properties”.

`C=CCS[S@@+]([O-])CC=C` (stereo in doubt) [allicin]: in assay [1], the insecticidal properties result is given as “significant insecticidal properties”.

For `C=C1CC/C=C(\C)CC[C@@H]2[C@@H]1CC2(C)C` [β-caryophyllene], the insecticidal properties entry in assay [1] is reported as “significant insecticidal properties”.

For pinene, the insecticidal properties entry in assay [1] is on record as “significant insecticidal properties”.

Turning to `CC(C)[C@@H]1CC[C@@H](C)C[C@H]1O` [3-p-menthanol], in assay [1], the insecticidal properties result is recorded as “significant insecticidal properties”.

As for `CCN(Cc1ccc(Cl)nc1)/C(=C/[N+](=O)[O-])NC` [Nitenpyram], the MOTALITY % in assay [2] and in assay [3] was 100% throughout.

Turning to `CC12CCC(CC1)C(C)(C)O2` [1,8-cineole], the insecticidal properties entry in assay [1] was “significant insecticidal properties”.
